Assay [1] concerns the target T1, MAGL (Homo sapiens, UniProt Q99685).
T1 sequence (Q99685 1-303): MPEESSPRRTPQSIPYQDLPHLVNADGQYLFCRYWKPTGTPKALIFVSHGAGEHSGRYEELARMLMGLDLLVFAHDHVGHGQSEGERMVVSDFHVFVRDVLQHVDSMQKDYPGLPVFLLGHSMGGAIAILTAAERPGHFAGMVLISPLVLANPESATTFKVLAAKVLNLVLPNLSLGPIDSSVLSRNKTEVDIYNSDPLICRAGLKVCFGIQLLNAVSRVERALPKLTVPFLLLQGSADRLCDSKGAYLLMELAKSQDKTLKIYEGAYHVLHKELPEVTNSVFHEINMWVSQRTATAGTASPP
Nature of the assay: Fluorescence polarization titration of probe 5 with purified hMAGL. In kind it is binding. To be noted: FP titration, probe 20 nM. How it is done:
Fluorescence Polarization Assay
Determination of the Kd of the fluorescent probes
Commercially available purified hMAGL protein (Cepter Biopartners, Nutley, NJ, USA) was diluted in PBS-buffer pH 7.4 + 0.1% Tween 80, in a range of concentrations and incubated with compound 5 (20 nM = [L]T) at ambient temperature for 60 min. Fluorescence polarization was determined via a Tecan Spark multimode plate reader (Ex/Em = 482/502 nm , 7.5 nm bandwidth each) in a 384 flat black well plate (Corning); six measurements per data point. The experiment was carried out in triplicate. Data were analyzed via GraphPad Prism 5.0 software. K d of the fluoroprobe was calculated from the observed MAGL concentration at half-maximal FP (FP50) as follows.
K = [L][P] = 0.5 [L]T (FP50 − 0.5 [L]T) = FP − 0.5 [L]
Competitive FP Binding Assay hMAGL in PBS-buffer pH 7.4 + 0.1% tween 80 at a final concentration of 50 nM was incubated with a range of inhibitor DMSO solutions (5µL) (serial dilution 1:3) for 30 min at ambient temperature in a 384 flat black well plate (Corning). […] After 30 min incubation at ambient temperature, fluorescence polarization was determined as described above. Data were analyzed via GraphPad Prism 5.0 software, and IC50 values were converted to Ki according to Nikolovska-Coleska et al. 28 Under these conditions the assay performed with an average z´= 0.90. […]

Assay [2] deals with T1, MAGL. As to the kind of experiment: Surface plasmon resonance on human MAGL. In kind it is binding. Conditions: SPR. How it is done:
High throughput kinetic solubility measurement was performed as previously described in the […]
Surface plasmon resonance
EDC/NHS coupling with a final protein concentration of 0.06 mg/mL: 10 mM acetate pH 5.5 + 10µM RO7224999-000-001(reference binder). No quenching was applied after immobilization, but the surface was left with a running buffer for 1 h to hydrolyze and stabilize.
Running buffer: […], 150 mM NaCl, 0.05% P20, pH 7.4 + 50 µM EDTA, 1% DMSO Instrument:
Biacore T200 Sensorchip: CM5 Temperature: 18 °C concentration series: 5 concentration 3-fold dilution, top conc 0.5 µM, contact time 180s, dissociation time 300s before each compound a blank injection for double referencing was measured. Each compound was followed by 9 injections of Control, RO7283571 (60 s contact time, 200 s dissociation time, 10 µM) to validate surface activity and recovery to determine off rates.
Dissociation was trimmed for compounds showing faster kinetics to suppress the over-fitting of baseline drift. Data was fitted with 1:1 model with an added drift parameter to improve fit quality and to compensate from insufficient drift correction with the double referencing. Off rates (koff) were determined by recovery of reference binding. The signal was first blank subtracted, and the corrected chaser response was plotted versus time and fitted to an exponential decay model. […]
A general note: Surface plasmon resonance follows binding to a sensor surface in real time, without labels.

In general, Kd refers to the equilibrium constant for the complex coming apart. A lower Kd goes with tighter binding. One may read the residence time as the mean lifetime of the complex, commonly the reciprocal of the off-rate. On to `O=C(N1CC2(CC(CC3=C4C=CC=[N+]4[B-](F)(F)n4cccc43)C2)C1)N1CC2(CC(n3cnc(C4CC4)n3)C2)C1` [Compound 5], for which, at MAGL [1], the Kd amounted to 6.65 nM. Moreover, on MAGL [2], the residence time came out at 44 min.

Regarding `O=C1CO[C@H]2CCN(C(=O)N3CC4(CC(CC5=C6C=CC=[N+]6[B-](F)(F)n6cccc65)C4)C3)C[C@H]2N1` [Compound 4], on MAGL [2], the residence time amounted to 37 min.

The record behind these values is article PMC11951083, “Highly Specific Miniaturized Fluorescent Monoacylglycerol Lipase Probes Enable Translational Research” (Journal of the American Chemical Society, 2025).
